Values of other authors as cited in US9182414B2, “Methods for identifying a GLP-1 secretagogue” (Arena Pharmaceuticals, Inc., priority 2005, dated 2015).

Target: T1, BRS-3 (Homo sapiens, UniProt P32247)
T1 sequence (P32247 1-399): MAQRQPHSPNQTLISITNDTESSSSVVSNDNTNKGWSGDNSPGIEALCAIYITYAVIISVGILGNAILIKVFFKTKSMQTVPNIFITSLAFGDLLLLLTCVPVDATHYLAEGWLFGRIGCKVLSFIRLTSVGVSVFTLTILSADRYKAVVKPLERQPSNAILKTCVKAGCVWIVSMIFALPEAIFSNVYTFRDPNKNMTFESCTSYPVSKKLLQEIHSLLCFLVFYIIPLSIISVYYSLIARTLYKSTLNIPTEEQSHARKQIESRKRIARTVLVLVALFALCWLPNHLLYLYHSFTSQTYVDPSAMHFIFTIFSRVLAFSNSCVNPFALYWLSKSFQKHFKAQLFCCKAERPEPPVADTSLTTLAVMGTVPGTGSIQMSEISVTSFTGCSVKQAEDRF
Conditions: BRS-3 over GRP-R and NMB-R; description taken from literature

[D-Tyr^6,βAla^11,Phe^13,Nle^14]Bombesin(6-14) [Compound 34]
selectivity as BRS-3 agonist: non-selective for BRS-3 over GRP-R and NMB-R
